This note sets out measurements from paper PMC8794255, “Small molecule inhibitor of Igf2bp1 represses Kras and a pro-oncogenic phenotype in cancer cells” (RNA Biology, 2021).

The structures appear in SMILES notation.

In this series the test system is ES2 cells. The experiment in a line: Cell proliferation assay (Incucyte), ES2. It is filed as cell-based, human. The following applies: ES2, up to 20 μM. As to the method:
ES2, H1299 and HEK293 cells were seeded in a 96 well plate (5X10^3 cells per well) for 24 hours before adding the compound at increasing concentrations. After an additional 24 hours, the plate was incubated in an IncuCyte® S3 Live-Cell Analysis System (Essen BioScience). The wells were filmed for 72 hours, and then analysed for proliferation rate Using IncuCyte® S3 Live-Cell Analysis System (Essen BioScience)

In the case of `O=C(c1ccc(Cn2cnnn2)cc1)N1CCCC(Nc2ccc3c(c2)OCO3)C1` (stereo not shown) [compound 7773], the Cell proliferation result is reported as “remarkably unaffected”.
